This is an account of results in paper PMC7586456 (ACS Pharmacology & Translational Science, 2020).

Read-outs that look alike come from different tables or passages of the source.

The test system of data set [1] is MERS-S PP. The class given is cell-based, MERS-CoV.
In data set [2] the test system is VSV-G PP. As to the kind of experiment: microbe, parasite or virus in culture. To be noted: for EC50: Vesicular stomatitis virus, Huh-7, read-out: VSV-G PP in Huh7 EC50. In kind it is cell-based, Vesicular stomatitis virus.
For data set [3], the system named is SARS-S PP. In kind it is cell-based, SARS-CoV.
For data set [4], the system named is MERS-S PP. In kind it is cell-based, MERS-CoV. This is another data set of the same source.
The next data set relates to Huh7 cells. To be noted: human.
In data set [5] the test system is SARS CoV-2 (USA_WA1/2020).
Data set [6] concerns Vero E6 cells.
The next data set in a line: in vitro. To be noted: human.
The test system of data set [7] is SARS-S PP. In kind it is cell-based, SARS-CoV. The source holds these as a separate data set.
Data set [8] concerns VSV-G PP. The class given is cell-based, Vesicular stomatitis virus.
Data set [9] relates to Vero E6 cells. This is another data set of the same source.
The test system of data set [10] is SARS CoV-2 (USA_WA1/2020). The settings on record: cited from earlier work.

The EC50 is the concentration needed to bring the measured effect to its halfway point.

In the case of `CCN1CCN(Cc2ccc(Nc3ncc(F)c(-c4cc(F)c5nc(C)n(C(C)C)c5c4)n3)nc2)CC1` [abemaciclib], in the data set on MERS-S PP [1], the “MERS-S PP in Huh7 efficacy” value is given as 82.3%. Also, in the data set with VSV-G PP [2], the “VSV-G PP in Huh7 efficacy” value is 27.1% and the EC50 is over 57.5 µM. Besides, in the data set with SARS-S PP [3], the “selectivity toward SARS-S-based entry compared with VSV-G in Calu-3 cells” value is given as over 10 fold. Besides, in the data set on MERS-S PP [4], the “selectivity toward MERS-S-based entry compared with VSV-G in Calu-3 cells” value was over 10 fold. The Huh7 cytotoxicity cytotox in the data set on Huh7 cells turned out to be 90.0%. In addition, the “safety ratio (CC50 of Vero E6 CPE counter screen divided by EC50 of SARS-CoV-2 CPE assay)” value in [5] (African green monkey) came to 6.3. Besides, the “Vero E6 cytotoxicity cytotox (SARS-CoV-2 CPE counter screen)” value in the data set on Vero E6 cells [6] (African green monkey) worked out at 34.0%. Also, the CC50 in the data set “in vitro” is 17.1 µM.
Regarding `COc1ccc2cc1Oc1ccc(cc1)C[C@H]1c3c(cc4c(c3Oc3cc5c(cc3OC)CCN(C)[C@@H]5C2)OCO4)CCN1C` [cepharanthine], the “SARS-S PP in Vero E6 efficacy” value with SARS-S PP [7] is listed as 90.9%. Also, in the data set on VSV-G PP [8], the “VSV-G PP in Vero E6 efficacy” value is listed as 76.9%. In addition, the “MERS-S PP in Huh7 efficacy” value in the data set on MERS-S PP [1] turned out to be 108.4%. Further, in the data set on VSV-G PP [2], the “VSV-G PP in Huh7 efficacy” value is 115.3% and the half-maximal effective concentration (EC50) is 24.2 µM. Moreover, the “Vero E6 cytotoxicity cytotox” value in the data set with Vero E6 cells [9] (African green monkey) is on record as 106.2%. In the data set on Huh7 cells, the Huh7 cytotoxicity cytotox was 88.9%. Also, the “SARS-CoV-2 CPE efficacy” value in [5] stood at 92.5%. Moreover, the “Vero E6 cytotoxicity cytotox (SARS-CoV-2 CPE counter screen)” value with Vero E6 cells [6] (African green monkey) is 99.0%. In addition, in data set [10], the “block of SARS-CoV-2 induced CPE in Vero E6 cells (in words)” value is “able to block SARS-CoV-2 induced CPE in Vero E6 cells, only when added during the viral entry time period, and not the postentry period”. The molecule also registered a CC50 in the data set “in vitro” of 38.3 µM.
In the case of `CN(C)CCCN1c2ccccc2CCc2ccc(Cl)cc21` [clomipramine], the “activity against SARS-S PP entry in the primary screen (in words)” value in the data set on SARS-S PP [7] was “active against SARS-S PP entry”. Moreover, the “cytotoxicity in the primary screen (in words)” value in the data set on Vero E6 cells [9] was “noncytotoxic”. Besides, the “protection against SARS-CoV-2 CPE (in words)” value in [10] is “protect against SARS-CoV-2 CPE”.
`COc1c(OCCCN2CCOCC2)ccc2c1N=C(NC(=O)c1cnc(N)nc1)N1CCN=C21` [copanlisib]: the “MERS-S PP in Huh7 efficacy” value in the data set on MERS-S PP [1] turned out to be 65.8%. Further, in the data set on VSV-G PP [2], the “VSV-G PP in Huh7 efficacy” value is given as 6.2% and the concentration giving a half-maximal response (EC50) is over 57.5 µM. This molecule also returned a Huh7 cytotoxicity cytotox in the data set with Huh7 cells of 13.6%. In addition, the “SARS-CoV-2 CPE efficacy” value in data set [5] turned out to be 0.0%. Further, in the data set on Vero E6 cells [6] (African green monkey), the “Vero E6 cytotoxicity cytotox (SARS-CoV-2 CPE counter screen)” value is 42.4%. Also, in “in vitro”, the CC50 is over 57.5 µM.
As for `CC1=C[C@]23C(=O)[C@@H](C=C(CO)[C@@H](O)[C@]2(O)[C@H]1O)[C@H]1[C@@H](C[C@H]3C)C1(C)C` [ingenol], in the data set with SARS-S PP [7], the “SARS-S PP in Vero E6 efficacy” value is 93.3% and the “selectivity ratio (EC50 of VSV-G PP entry divided by SARS-S PP entry EC50)” value came out at 12.0. Also, the “VSV-G PP in Vero E6 efficacy” value with VSV-G PP [8] was 76.4%. Besides, in the data set with MERS-S PP [1], the “activity in MERS-S PP entry in Huh7 cells (in words)” value is “not in MERS-S entry in Huh7 cells”. For the same molecule, the “Vero E6 cytotoxicity cytotox” value in the data set with Vero E6 cells [9] (African green monkey) was “–4.0%”. Further, in data set [5] (African green monkey), the “safety ratio (CC50 of Vero E6 CPE counter screen divided by EC50 of SARS-CoV-2 CPE assay)” value is on record as 355.7. Besides, in the data set with Vero E6 cells [6] (African green monkey), the “Vero E6 cytotoxicity cytotox (SARS-CoV-2 CPE counter screen)” value is listed as 0.0%.
As to `C=CC(=O)Nc1cc(Nc2nccc(-c3cn(C)c4ccccc34)n2)c(OC)cc1N(C)CCN(C)C` [osimertinib], in the data set on SARS-S PP [7], the “SARS-S PP in Vero E6 efficacy” value turned out to be 117.5% and the “selectivity ratio (EC50 of VSV-G PP entry divided by SARS-S PP entry EC50)” value is listed as 15.8. Further, the “VSV-G PP in Vero E6 efficacy” value with VSV-G PP [8] was 118.4%. In the data set with Vero E6 cells [9] (African green monkey), the “Vero E6 cytotoxicity cytotox” value is recorded as 99.6%. Also, the “safety ratio (CC50 of Vero E6 CPE counter screen divided by EC50 of SARS-CoV-2 CPE assay)” value in data set [5] (African green monkey) was found to be 2.5. In the data set with Vero E6 cells [6] (African green monkey), the “Vero E6 cytotoxicity cytotox (SARS-CoV-2 CPE counter screen)” value was determined as 99.7%.
Consider `CC(CN(C)C)CN1c2ccccc2CCc2ccccc21` (stereo not drawn) [trimipramine], for which the “SARS-S PP in Vero E6 efficacy” value in the data set on SARS-S PP [7] is given as 90.9%. Also, the “VSV-G PP in Vero E6 efficacy” value in the data set on VSV-G PP [8] is recorded as 29.2%. For the same molecule, the “entry inhibition activity in Calu-3 cells (in words)” value in the data set with SARS-S PP [3] is “not confirmed”. Further, the “Vero E6 cytotoxicity cytotox” value in the data set on Vero E6 cells [9] (African green monkey) is given as 16.6%. The “safety ratio (CC50 of Vero E6 CPE counter screen divided by EC50 of SARS-CoV-2 CPE assay)” value in data set [5] (African green monkey) is listed as 1.0. The “Vero E6 cytotoxicity cytotox (SARS-CoV-2 CPE counter screen)” value with Vero E6 cells [6] (African green monkey) was 16.6%.
In the case of colforsin [NKH477], the “SARS-S PP in Vero E6 efficacy” value in the data set with SARS-S PP [7] was 71.4%. Moreover, the figures for the EC50 (in the data set on SARS-S PP [7] (read-out: SARS-S PP in Vero E6 EC50); in the data set on VSV-G PP [8] (read-out: VSV-G PP in Vero E6 EC50); in data set [5] (read-out: SARS-CoV-2 CPE EC50)) were 1.36 µM, over 57.5 µM and 23.1 µM, respectively. Further, in the data set on VSV-G PP [8], the “VSV-G PP in Vero E6 efficacy” value stood at 0%. Besides, the “activity in MERS-S PP entry in Huh7 cells (in words)” value in the data set with MERS-S PP [1] was “not in MERS-S entry in Huh7 cells”. The figures for the CC50 in the data set with Vero E6 cells [9] and in the data set with Vero E6 cells [6] were over 57.5 µM and 25.2 µM, respectively. The “Vero E6 cytotoxicity cytotox” value in the data set on Vero E6 cells [9] was found to be 0%. The “safety ratio (CC50 of Vero E6 CPE counter screen divided by EC50 of SARS-CoV-2 CPE assay)” value in data set [5] was 1.1. For the same molecule, in the data set with Vero E6 cells [6], the “Vero E6 cytotoxicity cytotox (SARS-CoV-2 CPE counter screen)” value is on record as 42.0%.
